How the values were obtained:
Type in all cases: biochemical
human full-length GK = molecular target: T1, human full-length GK (Homo sapiens, UniProt P35557); test: tandem assay with EDTA quench; details: 12 mM glucose
T1 construct: human full-length GK (15 nM) was incubated with various concentrations of glucose
T1 sequence (P35557 1-466 isoform P35557-2): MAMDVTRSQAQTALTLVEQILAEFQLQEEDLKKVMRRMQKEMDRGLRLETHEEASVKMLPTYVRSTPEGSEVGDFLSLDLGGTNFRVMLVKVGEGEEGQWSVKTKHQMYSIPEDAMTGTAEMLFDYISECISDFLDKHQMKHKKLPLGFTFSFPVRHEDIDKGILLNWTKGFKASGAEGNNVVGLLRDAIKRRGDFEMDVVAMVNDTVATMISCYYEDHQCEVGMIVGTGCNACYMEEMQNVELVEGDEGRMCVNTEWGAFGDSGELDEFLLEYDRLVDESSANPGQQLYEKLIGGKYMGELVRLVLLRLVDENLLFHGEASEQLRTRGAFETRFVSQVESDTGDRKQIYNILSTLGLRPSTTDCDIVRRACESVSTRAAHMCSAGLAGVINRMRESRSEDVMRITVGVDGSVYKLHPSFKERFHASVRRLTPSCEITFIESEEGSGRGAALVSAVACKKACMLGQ
Protocol: The protocol used is essentially as described above with some variation. Briefly, human full-length GK (15 nM) was incubated with various concentrations of glucose in the range from 0.33 to 50 mM in clear bottom 384 well microtiter plates. To initiate the GK reaction, Mg-ATP (3 mM final concentration) was added to the protein in buffer, under the final buffer conditions of 25 mM HEPES, pH 7.1, containing 1 mM DTT and 5% DMSO. The total reaction volume was 20 μl. The reaction was allowed to proceed for ten minutes and was then quenched with 5 μl EDTA (45 mM final).
The components of the secondary reaction, ThioNAD and G6PDH (final concentrations of 650 μM and 3.33 Units, respectively), were then added together in a volume of 25 μl, and a total volume of 50 μl. Absorbance was read and activation calculated as a percentage of background activity, i.e., GK in the presence of DMSO, with background G6P subtracted. Background G6P was determined by pre-quenching GK with EDTA prior to reaction initiation with ATP.
The tandem assay (EDTA quench) was used to assess the activity of GK in the presence of putative GK activator compounds. The above-described tandem assay protocol was followed using a range of activator compound concentrations from 0 to 100 μM.

human hepatic GK [1] = molecular target: T2, human hepatic GK (Homo sapiens, UniProt P35557); test: filtration-based assay (direct G-6-P capture by ion-exchange resin); details: 12 mM glucose, FIG. 7
T2 sequence (P35557 1-466 isoform P35557-2): T1 sequence (P35557 1-466 isoform P35557-2)
Protocol: Human full-length recombinant GK was used to measure the activation of GK. Human full-length GK (15 nM) was incubated with various concentrations of glucose in the range from 0.33 to 50 mM in the presence of tritiated glucose (3H-glucose [6-^3H], 0.33 μCi) in 96 well microtiter plates. To initiate the GK reaction, Mg-ATP (3 mM final) was added to the protein in buffer, under the final buffer conditions of 25 mM HEPES, pH 7.1, containing 1 mM DTT and 5% DMSO. The total reaction volume was 110 μl. The reaction was allowed to proceed for ten minutes (i.e., the linear portion of the reaction) and was then quenched with 100 mM formic acid (1:1). A 200 μl aliquot of the quenched reaction products was then transferred to wells in a 96-well MultiScreen-GV 96 filtration plate containing 100 μl/well of Bio-rad AG 1-X8 Resin, formate form. The resin was then washed with H2O (1 ml/well), and the GK reaction product (G-6-P) eluted with 1M ammonium formate, pH 5 (200 μl/well). A 50 μl aliquot of this eluate was added to an Optiplate white 96 well plate containing 200 μl of Microscint PS. The plate was sealed and shaken for 5 minutes, and read on a Topcount scintillation counter (Perkin Elmer). The raw counts were converted to product concentration by comparison of the raw counts in the sample wells to wells containing a standard curve having known concentrations of ^3H-glucose-6-phosphate. […]

human hepatic GK [2] = molecular target: T2, human hepatic GK; test: tandem assay (uncoupled G-6-P detection, heat stop)
Protocol: Purified human recombinant GK was used to measure the activation of GK activity by glucose and a GK activator (Compound “C”) in the tandem assay. A suitable vehicle (for instance 24% DMSO in pH 7.25 Tris buffer), with or without (control) a GK modulator of interest was incubated with GK (50 μl of a 24 nM stock solution) over a range of concentrations of glucose (for instance from 0.32 to 80 mM) for 30 minutes in a 96-well PCR plate (10 μl). The GK reaction was initiated by addition of Mg-ATP (20 μl). The solution used comprised 12 mM ATP and 16 mM MgCl2. The final assay conditions were 25 mM Tris, pH 7.25, 1 mM DTT and 3% DMSO, 15 nM GK, 3 mM ATP and 4 mM MgCl2. Glucose stock solution (IM) was diluted to generate a dilution series with final glucose concentrations of: 0.2, 0.4, 0.6, 0.8, 1, 1.5, 2, 3, 4, 5, 6, 8, 10, 12, 20 and 50 mM. The total reaction volume per well was about 80 μl.
The GK reaction proceeded for about 10 minutes, and was followed by heating the 96-well plate in a hot water bath (100° C.) for 30 seconds to stop the reaction. […] An aliquot of reaction mixture (typically 50 μl) was then transferred to a second 96 well plate suitable for taking absorbance measurements. […] The reagents and reaction mixture are mixed for 2 minutes, followed by measurement of the absorbance at 405 nm using a plate reader. […]

Compound: CCOP(=O)(Cc1cnc(NC(=O)[C@H](CC2CCCC2)c2ccc(S(C)(=O)=O)cc2)cn1)OCC [Compound A, (R)-diethyl (5-(3-cyclopentyl-2-(4-(methylsulfonyl)phenyl)propanamido)pyrazin-2-yl)methylphosphonate]
- AC50 (human full-length GK; FIG. 10): ~0.904 µM
- Emax (human full-length GK; FIG. 10, read-out: maximal activation of background GK activity): 208%
- AC50 (human hepatic GK [1]): 7.1 µM
- Emax (human hepatic GK [1]; read-out: maximal activation number (above background)): 228%
- Kcat in the presence of GK activator (human hepatic GK [2]; 20 uM activator, control 3% DMSO): 44 S^−1
- KM compared to the controls (human hepatic GK [2]; in the presence of the activator, FIG. 8): substantially lower
